Results reported in patent US20110319392A1, “Thiazole Sulfonamide And Oxazole Sulfonamide Kinase Inhibitors” (priority 2009, published 2011).

Legend:
ErbB2 = target: T1, ErbB2 (Homo sapiens, UniProt P04626); assay: ErbB-2 substrate phosphorylation assay (HTRF); assay type: biochemical
T1 construct: made in house; host or cells: baculovirus expression system
Procedure, shortened: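 Baculovirus-expressed EGFR (0.8 nM) or ErbB2 (10 nM) in enzyme mix, preincubated 1 h at 20 °C with compound (0.00027–47.6 μM final), then 90 min at 20 °C with substrate mix of 20 μM ATP, 0.8 uM biotinylated Peptide C, MnCl2, MOPS pH 7.5. Phosphotyrosine by HTRF; pIC50 reported.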

A375P F11s tumor cells = assay: Cell growth inhibition assay (CellTiter-Glo), A375P F11s; assay type: cell-based, Human; conditions: Homo sapiens
Procedure, shortened: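 Cells seeded at 500/well (HN5 and HT-29 in high-glucose DMEM/10% FBS; A375P F11s in RPMI/10% FBS with pyruvate; SK-MEL-3 in McCoy's 5A/15% FBS), then exposed next day to 1:3 serial compound dilutions (0.2% DMSO) for 3 days at 37° C. CellTiter-Glo luminescence measured ATP; IC50 derived by 4-parameter fit.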

Colo205 tumor cells = assay: Cell growth inhibition assay (CellTiter-Glo), Colo205; assay type: cell-based, Human; conditions: Homo sapiens, COLO 205, 72 h; 3 days incubation
Procedure, shortened: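 Cells plated at 500 cells/well in their growth media, dosed next day with nine-step 1:3 compound dilutions (final DMSO 0.2%), then incubated 3 days at 37° C, 5% CO2. Total ATP read by CellTiter-Glo luminescence as a surrogate for cell number; IC50 interpolated from 4-parameter fit versus DMSO controls.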

T1 sequence (P04626 23-1255): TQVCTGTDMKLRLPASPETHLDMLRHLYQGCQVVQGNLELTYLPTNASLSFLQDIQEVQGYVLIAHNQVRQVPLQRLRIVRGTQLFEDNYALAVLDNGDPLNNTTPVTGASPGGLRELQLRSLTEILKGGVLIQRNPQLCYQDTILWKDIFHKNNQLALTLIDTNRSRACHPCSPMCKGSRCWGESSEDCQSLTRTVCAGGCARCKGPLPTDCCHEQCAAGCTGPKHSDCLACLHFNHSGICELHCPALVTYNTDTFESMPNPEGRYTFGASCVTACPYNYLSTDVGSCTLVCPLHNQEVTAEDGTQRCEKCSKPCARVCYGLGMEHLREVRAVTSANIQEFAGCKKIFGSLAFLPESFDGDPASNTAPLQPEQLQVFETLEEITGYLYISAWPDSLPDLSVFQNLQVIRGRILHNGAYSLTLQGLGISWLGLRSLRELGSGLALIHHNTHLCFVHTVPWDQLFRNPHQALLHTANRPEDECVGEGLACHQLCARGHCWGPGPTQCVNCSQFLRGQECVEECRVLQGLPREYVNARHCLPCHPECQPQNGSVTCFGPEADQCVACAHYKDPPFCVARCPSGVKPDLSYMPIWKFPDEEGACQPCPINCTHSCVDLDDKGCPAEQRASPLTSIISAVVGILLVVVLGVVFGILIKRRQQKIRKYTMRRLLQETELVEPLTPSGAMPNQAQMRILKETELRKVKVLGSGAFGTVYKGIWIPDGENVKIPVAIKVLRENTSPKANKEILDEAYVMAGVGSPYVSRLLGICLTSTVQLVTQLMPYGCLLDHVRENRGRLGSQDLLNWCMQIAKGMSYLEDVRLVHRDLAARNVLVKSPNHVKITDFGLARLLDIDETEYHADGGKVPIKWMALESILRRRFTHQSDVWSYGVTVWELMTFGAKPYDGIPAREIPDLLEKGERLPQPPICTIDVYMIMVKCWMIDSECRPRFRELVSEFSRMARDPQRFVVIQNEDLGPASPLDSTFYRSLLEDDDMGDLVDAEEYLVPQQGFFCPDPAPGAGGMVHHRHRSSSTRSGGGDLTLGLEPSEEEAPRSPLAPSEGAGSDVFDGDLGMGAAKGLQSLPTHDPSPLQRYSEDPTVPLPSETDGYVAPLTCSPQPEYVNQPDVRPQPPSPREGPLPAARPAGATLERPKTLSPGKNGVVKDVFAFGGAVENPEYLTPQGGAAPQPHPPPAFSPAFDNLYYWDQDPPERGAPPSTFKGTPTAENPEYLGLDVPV

IC50 (ErbB2): < 100 nM | IC50 (A375P F11s tumor cells): < 100 nM | IC50 (Colo205 tumor cells): < 100 nM
Structure (SMILES): CS(=O)(=O)CCN1CCN(c2ccc(Nc3nccc(-c4oc(N5CCCC5)nc4-c4cccc(NS(=O)(=O)c5c(F)cccc5F)c4F)n3)cc2F)CC1 [Example 167]
